This is an account of results in patent US20240165196A1, “Beta-Lactamase Inhibitors” (VIB VZW, priority 2021, published 2024).

One series has as its system E. coli strain UZ_TEM104. The series is classed as cell-based.
A further series deals with SH-SY5Y. The series is classed as cell-based, human.
In series [1] the test system is 16 additional E. coli clinical isolates containing TEM or SHV enzymes. The experiment in a line: MIC of ampicillin with fixed 30 μg/ml TEM3.2, isolate panel summary. The series is classed as cell-based. The following applies: 14 out of 16 isolates. As for the experimental part: Moreover, the core sequence of peptide TEM3.0 also occurs in the structurally related SHV β-lactamase (FIG. 2E). Although the C-terminal extension residues H and N have been replaced with physicochemically similar R and Q, respectively (FIG. 2H). […] To quantify the synergy between these four peptides and penicillin G, we performed a so-called checkerboard assay, which allows to compare the activity of two test compounds co-incubated (here peptide and a beta-lactam antibiotic), to their individual activities in isolation. The result from the assay is quantified as the Fractional Inhibitory Concentration Index (FICI), and it is generally accepted that values below 0.5 indicate synergistic effects between the compounds. […] We evaluated the synergy of the peptides with penicillin G in clinical E. coli isolates carrying the TEM (FIG. 2I) or SHV enzymes (FIG. 2J). […]
Determination of MIC values using the broth microdilution in the 96-well plate (BD Biosciences, Belgium) according to the EUCAST guideline, which was performed in 96-well polystyrene flat bottom microtiter plates (BD Biosciences). […] OD was measured at 590 nm a multipurpose ultraviolet-visible plate reader, and the absorbance of the growth bacteria was measured using absorbance reader. Bacterial growth was also visually inspected and agreed well with the OD reading.

For series [2] the following is noted: mouse, in vivo, iv, 5 mg/kg. As for the experimental part:
Vehicle alone (0.9% NaCl) was also administered (IV).

Series [3] deals with E. coli clinical isolate, β-lactamase TEM-ESBL; CTX-M-24; OXA-48. As to the kind of experiment: MIC of ampicillin without/with 30 μg/mL TEM3.2, clinical isolates. The series is classed as cell-based. The following applies: isolate 2017 Turkey, IAI, Abscess. As for the experimental part:
(§1) Moreover, the core sequence of peptide TEM3.0 also occurs in the structurally related SHV β-lactamase (FIG. 2E). Although the C-terminal extension residues H and N have been replaced with physicochemically similar R and Q, respectively (FIG. 2H). […] To quantify the synergy between these four peptides and penicillin G, we performed a so-called checkerboard assay, which allows to compare the activity of two test compounds co-incubated (here peptide and a beta-lactam antibiotic), to their individual activities in isolation. The result from the assay is quantified as the Fractional Inhibitory Concentration Index (FICI), and it is generally accepted that values below 0.5 indicate synergistic effects between the compounds. As a control, we generated a peptide using the same design, but based on a previously identified APR from the β-galactosidase enzyme (BGAL)^16 from E. coli (APR=SVIIWSL, peptide sequence=[…]) that has a MIC value>100 μg/mL on E. coli strain UZ_TEM104. We evaluated the synergy of the peptides with penicillin G in clinical E. coli isolates carrying the TEM (FIG. 2I) or SHV enzymes (FIG. 2J). […] As a further control, we also performed a checkerboard assay with an E. coli strain that was resistant to the aminoglycoside kanamycin and observed no synergy between this unrelated antibiotic and our peptides (FIG. 2L), in line with the notion that we are inhibiting a beta-lactamase but not the aminoglycoside degrading enzyme. […] The list of strains included some that harbored only TEM or SHV, but others contained additional Ambler Class A (CTX-M or OXA) or Class B (VIM and NDM) beta-lactamases. […] In contrast, the presence of the NDM-type […], that does have a high affinity for Ampicillin and that is completely distinct in sequence and structure from TEM and SHV, seemed to completely prevent the effect of the peptide on the beta-lactam sensitivity of the strains in which it occurred (see also further). As it appeared that TEM3.2 had activity in most isolates tested, we decided to focus further analysis on this peptide. Furthermore, we tested the performance of the TEM3.2 peptide in a checkerboard assay on strains carrying ESBL mutants of TEM, i.e. extended-spectrum mutations that cluster around the active site of the enzyme, and not in the aggregation prone region targeted by the peptide, and as expected from our mode of action, we observed synergy with ampicillin on these strains (FIG. 2M).
(§2) Determination of MIC values using the broth microdilution in the 96-well plate (BD Biosciences, Belgium) according to the EUCAST guideline, which was performed in 96-well polystyrene flat bottom microtiter plates (BD Biosciences). Briefly, a single colony was inoculated into 5 mL Difco™ Mueller Hinton Broth (BD Biosciences Ref 275730) and grown to the end-exponential growth phase in a shaking incubator at 37° C. Cultures were subsequently diluted to an MacFarland (0.5 optical density) then the culture was diluted to reach 10^6 CFU/mL in fresh MHB medium. 50 μl of different concentration of peptides ranging from 128 to 2 μg/mL were serially diluted to the sterile 96-well plate in MHB. 50 μL of the diluted bacteria in MHB were pipetted into 96-well plates to reach the final volume of 100 μL. The bacteria grown with the maximum concentration of carrier and medium were considered as positive and negative controls, respectively. The plates were statically incubated overnight at 37° C. to allow bacterial growth. OD was measured at 590 nm a multipurpose ultraviolet-visible plate reader, and the absorbance of the growth bacteria was measured using absorbance reader. Bacterial growth was also visually inspected and agreed well with the OD reading.

Series [4] deals with E. coli clinical isolate, β-lactamase TEM-1. The series is described as above. It is filed as cell-based. As to conditions: isolates year NA, country NA. As for the experimental part: as §1, §2
The subject of series [5] is E. coli clinical isolate, β-lactamase TEM-ESBL; CTX-M-15; NDM-5. The description is as above. It is filed as cell-based. As to conditions: isolate 2017 Qatar, UTI, Urine. Here is the method:
as §1, §2

In series [6] the test system is E. coli clinical isolate, β-lactamase TEM-ESBL. The series is described as above. The series is classed as cell-based. As for the experimental part: as §1, §2
In series [7] the test system is E. coli clinical isolate, β-lactamase TEM-ESBL; CTX-M-27. The series is described as above. The series is classed as cell-based. The following applies: isolate 2017 Romania, UTI, Urine. Here is the method:
as §1, §2

For series [8], the system named is E. coli clinical isolate, β-lactamase SHV-12; TEM-ESBL. The series is described as above. It is filed as cell-based. The following applies: isolate 2017 Germany, RTI, Bronchi. Here is the method:
as §1, §2

Series [9] relates to E. coli clinical isolate, β-lactamase TEM-ESBL; CTX-M-15; NDM-19. The description is as above. The following applies: isolate 2017 Qatar, IAI, Abscess. The series is classed as cell-based. Here is the method:
as §1, §2

In series [10] the test system is E. coli clinical isolate, β-lactamase SHV-2; CTX-M-55; VIM-1. The series is described as above. It is filed as cell-based. The following applies: isolate 2017 Turkey, UTI, Urine. As for the experimental part:
as §1, §2

Series [11] deals with E. coli clinical isolate, β-lactamase TEM-ESBL; CTX-M-TYPE. The series is described as above. It is filed as cell-based. The following applies: isolate 2017 France, IAI, Peritoneal Fluid. As for the experimental part:
as §1, §2

The test system of the next series is HeLa. The series is classed as cell-based, human. An excerpt:
FIGS. 4A-4K. […] IV—Intravenous, IP—Intraperitoneal, SC—Subcutaneously. The data shown is from a single experiment with 4 animals per group. […] (ns—non significant, #—P>0.05, *—P≤0.05, ***—P≤0.01, ****—P≤0.001). (FIG. 4G) FICI plot as in FIG. 2, for the E. coli strains indicated and the combination of penicillin and the TEM3.2 peptide. […] (FIG. 4J) Same as FIG. 4H for peptide BGAL. (FIG. 4K) Same as FIG. 4H for peptide P33.
Given this broad activity on clinical isolates, we wondered if the TEM3.2 peptide could be used to re-sensitize bacteria to ampicillin treatment in vivo, in a mouse Urinary Tract Infection (UTI) model.

On to Ac-RLTAFLHNRRPRLTAFLHNRR-NH2 [TEM3.0], for which the “reduction of the MIC of penicillin G” value with E. coli strain UZ_TEM104 (additive at fixed 50 μg/mL) was 8 fold. Also, in the series on E. coli strain UZ_TEM104 (in presence of additive at 50 μg/mL), the MIC penicillin worked out at 200 µg/mL.
On to Ac-RLTAFLHNRRPRLTAFLRQRR-NH2 [TEM3.2], for which the “cytotoxicity (Cell Titer Blue)” value in the series with SH-SY5Y and with HeLa was “not cytotoxic” in each case. In addition, the “clinical isolates sensitized to ampicillin” value in series [1] worked out at 87%. For the same substance, in series [2], the hematologic analysis entry is on record as “no major discrepancies to vehicle treated controls”. The “MIC ampicillin + 30 μg/mL TEM-3.2” value was at most 0.06 in [3]; at most 0.06 in series [4]; over 64 in [5]; at most 0.06 in series [6] (isolate 2016 Germany, UTI, Urine); 1 in [6] (isolate 2016 Lithuania, UTI, Urine); at most 0.06 in series [6] (isolate 2017 Israel, UTI, Urine). Moreover, the “MIC ampicillin + 30 μg/mL TEM-3.2” value is on record as 0.5 in [6] (isolate 2017 Portugal, RTI, Bronchi); at most 0.06 in series [6] (isolates 2016 South Africa, IAI, Peritoneal Fluid); at most 0.06 in series [7]; 0.12 in series [8]; over 64 in [9]; at most 0.06 in series [10]. The “MIC ampicillin + 30 μg/mL TEM-3.2” value in series [11] is listed as at most 0.06.
